Reference: paper PMC10550821, “Cryo-EM structures reveal native GABAA receptor assemblies and pharmacology” (Nature, 2023)

Assays:
[1] = biological target: T1, GABAA receptor α1 subunit (native α1*-β2-α1-β2*-γ2 nα1-GABAAR) (Mus musculus, UniProt P22723+P62812); assay: cryo-EM structure; competitive [3H]flunitrazepam scintillation proximity assay; assay type: binding
T1 construct: gene Gabra1; main assembly alpha1/beta2/gamma2

[2] = biological target: T2, GABAA receptor α1 subunit (native α1-containing receptors, nα1-GABAARs) (Mus musculus, UniProt P22723+P62812); assay: radioligand binding, scintillation proximity assay
T2 construct: gene Gabra1; native receptor ensemble purified from mouse brain (cerebellum excluded) in nanodiscs; with GABAA receptor γ2 subunit (Gabrg2); β2 subunit (Gabrb2) in the main assembly

[3] = biological target: T3, GABAA receptor α1 subunit, as it stood in the measurement of the Kd of 8E3-GFP Fab (sample not stated) (Mus musculus (assumed; mature rat chain …, UniProt P62812); assay: not stated; dissociation constant of 8E3-GFP Fab, printed with a pointer to Extended Data Fig. 1; method and sample not told
T3 construct: GABAA receptor subunit alpha-1; the Kd may come from such a sample

Work on `Cc1ccc(-c2nc3ccc(C)cn3c2CC(=O)N(C)C)cc1` [ZOL, zolpidem] yielded a Ki [1] of 22.9 ± 2.7 nM.

In the case of `CN1C(=O)CN=C(c2ccccc2F)c2cc([N+](=O)[O-])ccc21` [flunitrazepam], the Kd [2] is reported as 6 ± 0.2 nM.

B1: 8E3-GFP Fab (α1 subunit-specific Fab fragment of mouse monoclonal antibody 8E3, with 3C site, EGFP and twin-strep II tag on the heavy chain) (Fab, V domains shown)
VH: EIQLQQSGPELVKPGTSVKVSCKASGYSFTDYNMYWVKQSHGKSLEWIGYIDPYNADTTYNREFKGKATLTVDKSSSTAFMHLNSLTSEDSAVYYCARKRNNFYFDYWGQGTPLTVSS
VL: YIVMTQSPKSMSMSLGERVTLSCRASEYVGSYVSWYQQKPEQSPKLLIYGASNRYTGVPDRFAGSGSATDFTLTITSVQAEDLADYHCGQTYNYPTFGGGTKLEIK
notes: Fab heavy chain of 8E3; Fab light chain of 8E3; Both chains were expressed with an N-terminal GP64 signal peptide; also called α1-specific Fab; source: Sf9, recombinant baculovirus, secreted into the supernatant, purified (streptactin column); not shown: EGFP, C-terminal, kept; twin-strep II, C-terminal, kept
Molecule B1 has a Kd [3] of 0.5 nM.
